According to US8710233B2 (Gruenenthal GmbH, priority 2005, dated 2014):
Where two headings read alike, the source gives them in different places.

What was measured:
Format in all cases: cell-based
[1] = biological target: T1, vanilloid receptor 1 (VR1/TRPV1) of the rat species (Rattus norvegicus, UniProt O35433); test: FLIPR Ca2+ influx assay on rat dorsal root ganglia cells (pharmacological method I); conditions: for Ki: table 4, capsaicin; for inhibition at 10 µM: read-out: inhibition in percent, Ki (rat) Cap.
T1 construct: The spinal column is removed from decapitated rats; from tissue; host or cells: primary cells dissociated from rat dorsal root ganglia
T1 sequence (O35433 whole entry): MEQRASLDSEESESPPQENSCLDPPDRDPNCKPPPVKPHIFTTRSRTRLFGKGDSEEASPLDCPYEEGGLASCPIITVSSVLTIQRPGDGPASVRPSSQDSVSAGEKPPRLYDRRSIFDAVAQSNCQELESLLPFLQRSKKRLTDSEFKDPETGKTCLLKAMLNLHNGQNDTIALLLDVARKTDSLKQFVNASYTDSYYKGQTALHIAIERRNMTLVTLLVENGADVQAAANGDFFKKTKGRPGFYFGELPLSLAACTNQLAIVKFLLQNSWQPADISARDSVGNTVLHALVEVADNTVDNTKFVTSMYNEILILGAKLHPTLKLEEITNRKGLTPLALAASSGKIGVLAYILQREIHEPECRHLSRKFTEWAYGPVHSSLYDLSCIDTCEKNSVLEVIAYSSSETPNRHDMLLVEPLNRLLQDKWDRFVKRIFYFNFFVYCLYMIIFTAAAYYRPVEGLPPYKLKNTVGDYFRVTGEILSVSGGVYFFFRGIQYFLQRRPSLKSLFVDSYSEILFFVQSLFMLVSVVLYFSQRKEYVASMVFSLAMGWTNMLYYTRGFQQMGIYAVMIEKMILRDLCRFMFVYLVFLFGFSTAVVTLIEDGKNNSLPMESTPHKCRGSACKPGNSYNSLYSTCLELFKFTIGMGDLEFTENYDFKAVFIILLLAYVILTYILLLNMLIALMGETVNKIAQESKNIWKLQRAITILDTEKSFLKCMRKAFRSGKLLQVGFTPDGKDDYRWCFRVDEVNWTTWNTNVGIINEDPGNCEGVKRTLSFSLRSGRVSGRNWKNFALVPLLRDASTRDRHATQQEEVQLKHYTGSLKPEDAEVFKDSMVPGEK
Method in brief: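 Primary rat dorsal root ganglion cells loaded with 2 μM Fluo-4, Ca2+ influx read on FLIPR as peak fluorescence. Triplicates, at least 3 independent experiments.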

vanilloid receptor (VR1) = biological target: T2, vanilloid receptor (VR1) (Homo sapiens, UniProt Q8NER1); test: FLIPR Ca2+ influx assay on CHO K1 cells transfected with the VR1 gene (pharmacological method II); conditions: for inhibition at 10 µM: CHO-K1, read-out: inhibition in percent, Ki (human) Cap.
T2 construct: expressed in transfected cells; host or cells: CHO K1 cells (ECACC), stably transfected
T2 sequence (Q8NER1 whole entry): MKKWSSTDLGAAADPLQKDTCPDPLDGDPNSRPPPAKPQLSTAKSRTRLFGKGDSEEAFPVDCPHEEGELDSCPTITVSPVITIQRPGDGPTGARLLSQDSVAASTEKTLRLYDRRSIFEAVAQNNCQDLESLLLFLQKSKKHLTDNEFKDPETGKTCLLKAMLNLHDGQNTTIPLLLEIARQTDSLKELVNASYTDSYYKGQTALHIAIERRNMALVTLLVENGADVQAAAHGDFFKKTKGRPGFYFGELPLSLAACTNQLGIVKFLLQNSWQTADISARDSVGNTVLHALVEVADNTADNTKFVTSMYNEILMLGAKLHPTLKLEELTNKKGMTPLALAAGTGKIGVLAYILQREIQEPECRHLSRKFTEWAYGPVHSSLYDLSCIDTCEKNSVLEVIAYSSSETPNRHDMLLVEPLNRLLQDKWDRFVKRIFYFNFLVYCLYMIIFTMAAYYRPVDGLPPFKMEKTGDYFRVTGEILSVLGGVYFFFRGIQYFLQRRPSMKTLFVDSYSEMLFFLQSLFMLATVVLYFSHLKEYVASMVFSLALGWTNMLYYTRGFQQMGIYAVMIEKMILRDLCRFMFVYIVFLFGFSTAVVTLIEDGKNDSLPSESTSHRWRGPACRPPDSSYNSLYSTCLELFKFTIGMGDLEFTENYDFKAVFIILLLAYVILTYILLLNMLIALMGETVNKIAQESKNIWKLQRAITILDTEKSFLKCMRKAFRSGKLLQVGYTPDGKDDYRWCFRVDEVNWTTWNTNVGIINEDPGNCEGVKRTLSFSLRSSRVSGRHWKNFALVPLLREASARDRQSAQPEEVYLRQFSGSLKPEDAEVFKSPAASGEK

VR1/TRPV1 receptor = VR1/TRPV1 receptor (Homo sapiens, UniProt Q8NER1); test: IC50 (human) after pH stimulus; conditions: for IC50: table 4; for inhibition at 1 µM: ne = no effect
VR1/TRPV1 receptor, sequence (Q8NER1 whole entry): as above

[2] = table 4, capsaicin, read-out: Ki (human) Cap.
[3] = read-out: inhibition in percent, IC50 (human) after pH stimulus

Compound	Ki ([1]; read-out: Ki (rat) Cap.)	Ki (vanilloid receptor (VR1); [2])	IC50 (VR1/TRPV1 receptor)	also measured
CC(C(=O)NCc1ccc(C(F)(F)F)nc1-c1cccc(Cl)c1)c1ccc(NS(C)(=O)=O)c(F)c1 (centres unmarked) [Example 149, N-[2-(3-chloro-phenyl)-6-trifluoromethyl-pyridin-3-ylmethyl]-2-(3-fluoro-4-methylsulfonamido-phenyl)-propionamide]	0.7 nM	0.5 nM	9.7 nM	
COc1ccc(-c2nc(C(F)(F)F)ccc2CNC(=O)C(C)c2ccc(NS(C)(=O)=O)c(F)c2)cc1 (centres unmarked) [Example 151, 2-(3-fluoro-4-methylsulfonamido-phenyl)-N-[2-(4-methoxy-phenyl)-6-trifluoromethyl-pyridin-3-ylmethyl]-propionamide]	1.4 nM	1 nM	92.3 nM	
CCCCCOc1cc(C(C)(C)C)ccc1CNC(=O)C(C)c1ccc(NS(C)(=O)=O)c(F)c1 (centres unmarked) [Example 153, N-(4-tert-butyl-2-pentyloxy-benzyl)-2-(3-fluoro-4-methylsulfonamido-phenyl)-propionamide]	0.7 nM	2.2 nM	92.4 nM	
CC(C(=O)NCc1ccc(C(C)(C)C)cc1OC1CCCC1)c1ccc(NS(C)(=O)=O)c(F)c1 (centres unmarked) [Example 155, N-(4-tert-butyl-2-cyclopentyloxy-benzyl)-2-(3-fluoro-4-methylsulfonamido-phenyl)-propionamide]	0.8 nM	1.8 nM	145 nM	
CC(C(=O)NCc1ccc(C(F)(F)F)nc1OC1CCC1)c1ccc(NS(C)(=O)=O)c(F)c1 (centres unmarked) [Example 156, N-(2-cyclobutoxy-6-trifluoromethyl-pyridin-3-ylmethyl)-2-(3-fluoro-4-methylsulfonamido-phenyl)-propionamide]		1.4 nM	69.8 nM	Ki ([1]; Ki (rat) Cap.): 1.7 nM
CC1CCC(Oc2nc(C(F)(F)F)ccc2CNC(=O)C(C)c2ccc(NS(C)(=O)=O)c(F)c2)CC1 (centres unmarked) [Example 157, 2-(3-fluoro-4-methylsulfonamido-phenyl)-N-[2-(4-methyl-cyclohexyloxy)-6-trifluoromethyl-pyridin-3-ylmethyl]-propionamide]		2.9 nM	43.1 nM	Ki ([1]; Ki (rat) Cap.): 1.3 nM
CC(=O)OC1CCN(c2nc(C(F)(F)F)ccc2CNC(=O)C(C)c2ccc(NS(C)(=O)=O)c(F)c2)CC1 (centres unmarked) [Example 158, acetic acid 3′-{[2-(3-fluoro-4-methylsulfonamido-phenyl)-propionylamino]-methyl}-6′-trifluoromethyl-3,4,5,6-tetrahydro-2H-[1,2′]bipyridinyl-4-yl ester]	12.6 nM	4 nM	139 nM	
CC(C(=O)NCc1ccc(C(F)(F)F)nc1OCC1CCCC1)c1ccc(NS(C)(=O)=O)c(F)c1 (centres unmarked) [Example 161, N-(2-cyclopentylmethoxy-6-trifluoromethyl-pyridin-3-ylmethyl)-2-(3-fluoro-4-methylsulfonamido-phenyl)-propionamide]		0.4 nM	11.6 nM	Ki ([1]; Ki (rat) Cap.): 0.7 nM
CC(C)OC1CCN(c2nc(C(F)(F)F)ccc2CNC(=O)C(C)c2ccc(NS(C)(=O)=O)c(F)c2)CC1 (centres unmarked) [Example 162, 2-(3-fluoro-4-methylsulfonamido-phenyl)-N-(4-isopropoxy-6′-trifluoromethyl-3,4,5,6-tetrahydro-2H-[1,2′]bipyridinyl-3′-ylmethyl)-propionamide]	1.6 nM	3 nM		inhibition at 1 µM (VR1/TRPV1 receptor; [3]): 58%
CCOc1nc(C(F)(F)F)ccc1CNC(=O)C(C)c1ccc(NS(C)(=O)=O)c(F)c1 (centres unmarked) [Example 163, N-(2-ethoxy-6-trifluoromethyl-pyridin-3-ylmethyl)-2-(3-fluoro-4-methylsulfonamido-phenyl)-propionamide]		12.7 nM	277 nM	Ki ([1]; Ki (rat) Cap.): 8.5 nM
CC(C(=O)NCc1ccc(C(F)(F)F)nc1N1CCC(N2CCCCC2)CC1)c1ccc(NS(C)(=O)=O)c(F)c1 (centres unmarked) [Example 164, 2-(3-fluoro-4-methylsulfonamido-phenyl)-N-(6″-trifluoromethyl-3,4,5,6,3′,4′,5′,6′-octahydro-2H,2′H-[1,4′;1′,2″]terpyridin-3″-ylmethyl)-propionamide]				inhibition at 10 µM [1]: 85%; inhibition at 10 µM (vanilloid receptor (VR1)): 84%; inhibition at 10 µM (VR1/TRPV1 receptor; [3]): 30%; inhibition at 25 µM (VR1/TRPV1 receptor; @ 25 μM, read-out: inhibition in percent, IC50 (human) after pH stimulus): 28%
CC(C(=O)NCc1ccc(C(F)(F)Cl)nc1OCc1ccccc1)c1ccc(NS(C)(=O)=O)c(F)c1 (centres unmarked) [Example 169, N-[2-benzyloxy-6-(chloro-difluoro-methyl)-pyridin-3-ylmethyl]-2-(3-fluoro-4-methylsulfonamido-phenyl)-propionamide]	0.6 nM	0.9 nM	40.5 nM	
CC(C(=O)NCc1ccc(C(F)(F)F)nc1OC1CCC(C(C)(C)C)CC1)c1ccc(NS(C)(=O)=O)c(F)c1 (centres unmarked) [Example 170, N-[2-(4-tert-butyl-cyclohexyloxy)-6-trifluoromethyl-pyridin-3-ylmethyl]-2-(3-fluoro-4-methylsulfonamido-phenyl)-propionamide]	5.1 nM	7.7 nM	242 nM	
Cc1ccc(COc2nc(C(F)(F)F)ccc2CNC(=O)C(C)c2ccc(NS(C)(=O)=O)c(F)c2)cc1 (centres unmarked) [Example 172, 2-(3-fluoro-4-methylsulfonamido-phenyl)-N-[2-(4-methyl-benzyloxy)-6-trifluoromethyl-pyridin-3-ylmethyl]-propionamide]	0.4 nM	1.5 nM	53 nM	
CC(C(=O)NCc1ccc(C(F)(F)F)nc1OCc1ccc(F)cc1)c1ccc(NS(C)(=O)=O)c(F)c1 (centres unmarked) [Example 175, N-[2-(4-fluoro-benzyloxy)-6-trifluoromethyl-pyridin-3-ylmethyl]-2-(3-fluoro-4-methylsulfonamido-phenyl)-propionamide]	1.2 nM	2.5 nM	25 nM	
CC(C(=O)NCc1ccc(C(F)(F)F)nc1N1CCN(c2ccncc2)CC1)c1ccc(NS(C)(=O)=O)c(F)c1 (centres unmarked) [Example 176, 2-(3-fluoro-4-methylsulfonamido-phenyl)-N-[2-(4-pyridin-4-yl-piperazin-1-yl)-6-trifluoromethyl-pyridin-3-ylmethyl]-propionamide]				inhibition at 10 µM [1]: 60%; inhibition at 10 µM (vanilloid receptor (VR1)): 63%; inhibition at 1 µM (VR1/TRPV1 receptor; [3]): 13%; inhibition at 10 µM (VR1/TRPV1 receptor; [3]): 43%
CCCCCCOc1nc(C(F)(F)Cl)ccc1CNC(=O)C(C)c1ccc(NS(C)(=O)=O)c(F)c1 (centres unmarked) [Example 180, N-[6-(chloro-difluoro-methyl)-2-hexyloxy-pyridin-3-ylmethyl]-2-(3-fluoro-4-methylsulfonamido-phenyl)-propionamide]	0.3 nM	0.8 nM	22.8 nM	
CC(C(=O)NCc1ccc(C(F)(F)Cl)nc1OCc1cccnc1)c1ccc(NS(C)(=O)=O)c(F)c1 (centres unmarked) [Example 181, N-[6-(chloro-difluoro-methyl)-2-(pyridin-3-ylmethoxy)-pyridin-3-ylmethyl]-2-(3-fluoro-4-methylsulfonamido-phenyl)-propionamide]	5.6 nM	14.6 nM	1070 nM	
CCCCN(CCCC)c1nc(C(F)(F)F)ccc1CNC(=O)C(C)c1ccc(NS(C)(=O)=O)c(F)c1 (centres unmarked) [Example 183, N-(2-dibutylamino-6-trifluoromethyl-pyridin-3-ylmethyl)-2-(3-fluoro-4-methylsulfonamido-phenyl)-propionamide]	0.7 nM	0.6 nM	10.5 nM	
CCCN(CCC)c1nc(C(F)(F)Cl)ccc1CNC(=O)C(C)c1ccc(NS(C)(=O)=O)c(F)c1 (centres unmarked) [Example 186, N-[6-(chloro-difluoro-methyl)-2-dipropylamino-pyridin-3-ylmethyl]-2-(3-fluoro-4-methylsulfonamido-phenyl)-propionamide]	0.8 nM	0.6 nM	37.6 nM	
CCOC(=O)C1(c2ccccc2)CCN(c2nc(C(F)(F)F)ccc2CNC(=O)C(C)c2ccc(NS(C)(=O)=O)c(F)c2)CC1 (centres unmarked) [Example 189, 3′-{[2-(3-fluoro-4-methylsulfonamido-phenyl)-propionylamino]-methyl}-4-phenyl-6′-trifluoromethyl-3,4,5,6-tetrahydro-2H-[1,2′]bipyridinyl-4-carbonic acid ethyl ester]			166 nM	Ki ([1]; Ki (rat) Cap.): 3 nM; Ki (vanilloid receptor (VR1)): 4.7 nM
CC(C(=O)NCc1ccc(C(F)(F)F)nc1N1CCC(C(F)(F)F)CC1)c1ccc(NS(C)(=O)=O)c(F)c1 (centres unmarked) [Example 190, N-(4,6′-bis-trifluoromethyl-3,4,5,6-tetrahydro-2H-[1,2′]bipyridinyl-3′-ylmethyl)-2-(3-fluoro-4-methylsulfonamido-phenyl)-propionamide]	0.4 nM	0.6 nM	31 nM	
CC(C(=O)NCc1ccc(C(F)(F)F)nc1C=Cc1ccccc1)c1ccc(NS(C)(=O)=O)c(F)c1 (centres unmarked) [Example 191, 2-(3-fluoro-4-(methylsulfonamido)phenyl)-N-((2-styryl-6-(trifluoromethyl)pyridin-3-yl)methyl)propanamide]	2 nM	2.2 nM	85 nM	
CC(C(=O)NCc1ccc(C(F)(F)F)nc1CCc1ccccc1)c1ccc(NS(C)(=O)=O)c(F)c1 (centres unmarked) [Example 192, 2-(3-fluoro-4-methylsulfonamido-phenyl)-N-(2-phenethyl-6-trifluoromethyl-pyridin-3-ylmethyl)-propionamide]	2.4 nM	1.4 nM	47 nM	
